Measured values published in article PMC9291755, “The Effect of Food on the Pharmacokinetics of the Potassium‐Competitive Acid Blocker Vonoprazan” (Clinical Pharmacology in Drug Development, 2021).
Entries after “also recorded” stand apart in the source; their conditions may differ. Where two headings read alike, the source gives them in different places.

Legend:
[1] = system: cytochrome P450 (CYP) 3A4; set-up: method as in PMID 26369775, PMID 29383028, PMID 27414183; details: lesser extent by CYP2B6, CYP2C19, CYP2D6; cited from earlier work
[2] = set-up: method as in PMID 25707624; details: 20 mg once daily after ≥10-hour fast, cited from earlier work
[3] = set-up: method as in PMID 17575528, PMID 21132072; details: no enteric coating required; cited from earlier work
[4] = set-up: method as in PMID 25707624, PMID 28198590, PMID 26193978, PMID 31990424; details: 212 healthy volunteers, daily doses up to 40 mg for up to 7 days; cited from earlier work
[5] = Safety/tolerability in the food-effect study (adverse events, vital signs, ECG, laboratory tests); details: for Incidence of AEs: single 20-mg dose, 24 subjects
Description: Safety variables included physical examination findings; vital signs; electrocardiograms; clinical laboratory evaluations including hematology, chemistry, and urinalysis; and treatment‐emergent adverse events (AEs).
The safety analysis set comprised all enrolled subjects who received at least 1 dose of vonoprazan and was used for safety and baseline demographics summaries.

[6] = Phase 1 randomized open-label crossover food-effect pharmacokinetic study, plasma vonoprazan by LC-MS/MS; type: in vivo, healthy Caucasian male and female subjects (human); details: for AUC / Cmax / tmax: po, 20 mg; for tmax: read-out: tmax, median (min, max)
Description: This was a randomized, open‐label, 2×2 crossover, phase 1 study stratified by gender in healthy Caucasian male and female subjects. The study was conducted at a single site in Northern Ireland (MDS Pharma Services, Belfast, Northern Ireland). The study was approved by an independent ethics committee (Edinburgh Independent Ethics Committee, Edinburgh, Scotland). Written informed consent was obtained from all subjects before study initiation.
The enrolled study population included 12 men and 14 women aged 18 to 45 years, of Caucasian ethnicity, considered eligible on the basis of study inclusion and exclusion criteria. To be eligible, subjects must have been in good health and have had clinical laboratory evaluations (including clinical chemistry, hematology, and urinalysis) within the reference range for the testing laboratory, or only minor deviations that were deemed by the investigator to be clinically nonsignificant. Additional inclusion criteria included a body mass index between 18 and 30 kg/m^2 and a willingness to provide written informed consent before any screening procedures; abstention from caffeine, alcohol, and strenuous exercise from 72 hours before dosing until the follow‐up call/visit; and use of adequate contraception from screening, throughout the study, and for 30 days following the last dose of study medication (applicable to female subjects of childbearing potential who were sexually active) or for 12 weeks after the follow‐up visit (applicable to male subjects with female partners, both of whom were required to use contraception). In addition to caffeine and alcohol, subjects who had received the following were excluded from participation: nicotine products 6 weeks before the first dose of study medication; antibiotics within 28 days prior to initial screening; prescription medication or St. John's wort, ginseng, kava, ginkgo biloba, melatonin, herbal or homeopathic preparations, or other nutriceuticals within 28 days before the first dose; over‐the‐counter medication including salicylates (except when approved on a case‐by‐case basis) or vitamin supplements within 14 days before the first dose; and grapefruit or grapefruit products, Seville oranges (sour) or products, or poppy seeds within 7 days before the first dose.
Subjects were randomized to either the fed/fasted state or fasted/fed state sequence, with randomization stratified by sex. Eligible subjects received a single 20‐mg dose of vonoprazan (given as two 10‐mg tablets) either following an overnight fast or 30 minutes after a breakfast (≈900 calories, with 62% of the calories from fat, 23% from carbohydrate, and 14% from protein).
After a 5‐day washout period, subjects received a second 20‐mg dose of vonoprazan in the alternative fed/fasted state, and the identical process was performed. During dosing in the fasted state, subjects fasted for 10 hours before receiving the study drug. During dosing in the fed state, subjects fasted for 10 hours and then consumed the breakfast, which was started 30 minutes before dosing and eaten in ≤30 minutes. Vonoprazan was taken with 240 mL of water, and subjects refrained from eating for 4 hours after dosing. Water (200 mL) was given to all subjects at 2 and 4 hours after dosing. All administrations of vonoprazan were taken under supervision.
Plasma concentrations of vonoprazan were determined using a liquid chromatography–tandem mass spectrometry assay with a validated concentration range of 0.1 to 100 ng/mL. A total of 864 samples were analyzed in 13 reported batches. The bioanalytical method utilized protein precipitation and extraction of plasma samples with acetonitrile‐formic acid (100:0.2, v/v) before analysis by liquid chromatography–tandem mass spectrometry. […]

[7] = cited from earlier work
[8] = system: gastric acid secretion; set-up: method as in PMID 26111126; details: single doses ≥20 mg, clinical studies; cited from earlier work
[9] = set-up: method as in PMID 26369775; details: single 20 mg, cited from earlier work
[10] = set-up: method as in PMID 25707624; details: 20 mg once daily after ≥10-hour fast, cited from earlier work; remark: listed apart in the source
[11] = single 20-mg doses, fed and fasted
[12] = 12 healthy Japanese adult men, unchanged vonoprazan

What does the source list for `CNCc1cc(-c2ccccc2F)n(S(=O)(=O)c2cccnc2)c1.O=C(O)/C=C/C(=O)O` [vonoprazan, 1‐[5‐(2‐fluorophenyl)‐1‐(pyridin‐3‐ylsulfonyl)‐1H‐pyrrol‐3‐yl]‐N‐methylmethanamine monofumarate]?
metabolizing enzymes [1]: primarily metabolized by cytochrome P450 (CYP) 3A4; tmax ([2]; day 1, UK study): 1.5 h; tmax ([2]; day 7, UK study): 1.1 h; acid stability [3]: acid stable; safety signals [4]: no safety signals; Incidence of AEs ([5]; fasted state): 12.5%; Incidence of AEs ([5]; fed state): 8.3%; Tolerability ([5]; single 20-mg doses given on 2 occasions, healthy subjects): safe and well tolerated; Changes in liver function tests [5, 11]: no obvious treatment‐emergent changes; Changes in vital signs, 12-lead electrocardiograms, laboratory safety tests [5, 11]: no clinically important changes; Serious AEs and deaths during the study [5, 11]: No serious AEs and no deaths; Severity of reported AEs [5, 11]: mild; Number of adverse events ([5]; whole study, four subjects affected): 6; AUC ([6]; both sexes, human, plasma, single 20-mg oral dose, fasted, N = 24, read-out: AUC0‐24, least-squares mean): 154 ng·h/mL; AUC ([6]; both sexes, human, plasma, single 20-mg oral dose, fasted, N = 24, read-out: AUC0‐∞, least-squares mean): 171 ng·h/mL; Cmax ([6]; both sexes, human, plasma, single 20-mg oral dose, fasted, N = 24, read-out: Cmax, least-squares mean): 17.3 ng/mL; AUC ([6]; both sexes, human, plasma, single 20-mg oral dose, fasted, n = 24, plasma, read-out: AUC0‐24, mean (SD)): 161 ng·h/mL; AUC ([6]; both sexes, human, plasma, single 20-mg oral dose, fasted, n = 24, plasma, read-out: AUC0‐∞, mean (SD)): 179 ng·h/mL; Cmax ([6]; both sexes, human, plasma, single 20-mg oral dose, fasted, n = 24, plasma, read-out: Cmax, mean (SD)): 18.2 ng/mL; tmax ([6]; both sexes, human, plasma, single 20-mg oral dose, fasted, n = 24): 2 h; Cmax ([6]; both sexes, human, plasma, single 20-mg oral dose, fed (high-fat breakfast), n = 24, plasma, read-out: Cmax, mean (SD)): 18.9 ng/mL; AUC ([6]; both sexes, human, plasma, single 20-mg oral dose, fed, N = 24, read-out: AUC0‐24, least-squares mean): 174 ng·h/mL; AUC ([6]; both sexes, human, plasma, single 20-mg oral dose, fed, N = 24, read-out: AUC0‐∞, least-squares mean): 196 ng·h/mL; Cmax ([6]; both sexes, human, plasma, single 20-mg oral dose, fed, N = 24, read-out: Cmax, least-squares mean): 18.2 ng/mL; AUC ([6]; both sexes, human, plasma, single 20-mg oral dose, fed, n = 24, plasma, read-out: AUC0‐24, mean (SD)): 182 ng·h/mL; AUC ([6]; both sexes, human, plasma, single 20-mg oral dose, fed, n = 24, plasma, read-out: AUC0‐∞, mean (SD)): 206 ng·h/mL; tmax ([6]; both sexes, human, plasma, single 20-mg oral dose, fed, n = 24): 4 h; half-life ([6]; both sexes, human, plasma, single 20-mg oral dose, fed, n = 24, read-out: t1/2 (terminal elimination half-life), mean (SD) (converted)): 6.9 h; Effect of food on exposure ([6]; single 20-mg dose, fed vs fasted, CI within 80% to 125%): not meaningfully affected by food; also recorded: not materially affected by food; AUC0‐24, fed/fasted ratio of geometric (least-squares) means ([6]; single 20-mg oral dose, N = 24): 1.13; AUC0‐∞, fed/fasted ratio of geometric (least-squares) means ([6]; single 20-mg oral dose, N = 24): 1.15; Cmax, fed/fasted ratio of geometric (least-squares) means ([6]; single 20-mg oral dose, N = 24): 1.05; t1/2 (terminal elimination half-life), mean (SD) ([6]; single 20-mg oral dose, fasted, n = 24): 6.9 (1.45) h; influence of CYP2C19 polymorphisms on pharmacokinetics ([7]; Japanese repeated-dose study and earlier phase 1 study): not influenced by CYP2C19 polymorphisms; accumulation in plasma after multiple doses ([7]; doses from 10 to 40 mg, days 1 and 7): little to no accumulation; median time of peak plasma concentrations (tmax) ([7]; oral, once-daily dosing): ≤ 2 h; Tolerability [8]: well tolerated; duration of action [8]: 24 h; onset of action [8]: < 4 h; AUC0‐48, fed/fasted ratio [9, 12]: 1.08; Cmax, fed/fasted ratio [9, 12]: 1.09; AUC0‐∞ ([9]; fasted state, Japanese men): 225.3 ng·h/mL; Cmax ([9]; fasted state, Japanese men): 24.3 ng/mL; median tmax ([9]; fasted state, Japanese men): 1.5 h; t1/2 ([9]; fasted state, Japanese men): 7.7 h; median tmax ([9]; fed state, Japanese men): 3.0 h; tmax ([10]; day 1, Japanese study): 1.5 h; tmax ([10]; day 7, Japanese study): 1.5 h
